Structures are written as SMILES.

Here are results for four molecules from patent US10071083B2 (Ovid Therapeutics Inc., priority 2017, dated 2018).

In one data set the test system is tinnitus. The settings on record: published studies reviewed by Jufas and Wood (2015); cited from earlier work.
The conditions of data set [1]: human, in vivo.
In data set [2] the test system is healthy, male and female subjects. Kind of data set: Study of driving performance after gaboxadol administration (Example 3). The class given is in vivo, human. An excerpt:
The study participants included healthy, male and female subjects between 21 and 45 years of age, with a valid drivers license for at least 3 years.
Following a cognitive and psychomotor test battery, the driving test started at 9 am and lasted for one hour.

The subject of data set [3] is healthy adults subjected to a 5-hour sleep restriction. Kind of data set: Study of daytime performance after sleep restriction (Example 4). In kind it is in vivo, human. The protocol:
The study included a 2-night single-blind placebo run-in period, a 4-night double-blind treatment period during which sleep was restricted to 5 hours and a 2-night single-blind placebo run-out period. The study included healthy male and female volunteers 18 to <55 years of age.
2-night run-in period: All patients received placebo
2-night run-out period: All patients received placebo
The primary endpoints included observations based on the Multiple Sleep Latency Test (MSLT) and Slow Wave Sleep (SWS) assessment.

Another data set concerns patients. The note with it: patients with a history of drug abuse who received gaboxadol; cited from earlier work.

As to `O=C1CN=C(c2ccccc2Cl)c2cc([N+](=O)[O-])ccc2N1` [Clonazepam], the “efficacy in treating tinnitus” value in the data set with tinnitus was “effective”.
For the molecule `Oc1noc2c1CCNC2` [gaboxadol, 4,5,6,7-tetrahydroisoxazolo [5,4-c]pyridine-3-ol], the “CL (in the CL/F line)” value in data set [1] (iv, 10 mg) was determined as 438 mL/min. Further, in data set [1] (po), the “dose dependence of plasma AUC0-∞ and Cmax” value is listed as “dose proportional increases”. Besides, the “most frequent adverse events, middle-of-the-night treatment” value in data set [2] (gaboxadol 15 mg at 4 am) is “dizziness, nausea and somnolence”. Also, the “effect on driving after evening dose compared with blood alcohol” value in data set [2] (gaboxadol 15 mg evening dose, comparison with 0.05% blood alcohol concentration) is on record as “less than the effect observed at a 0.05% blood alcohol concentration”. For the same molecule, the “most frequent adverse events, evening treatment” value in data set [2] (gaboxadol 15 mg in the evening) is “headache and somnolence”. Moreover, in data set [3] (gaboxadol 15 mg versus placebo), the “biophysiological measures of stress (heart rate variability, cortisol levels, catecholamine levels, body temperature) versus placebo” value is given as “no differences” and the “daytime performance, effect sizes of the neurocognitive battery” value is on record as “no strong evidence that gaboxadol improves daytime performance”. Also, in data set [3] (gaboxadol 15 mg, 4 nights, sleep restricted to 5 hours, p=0.047, 1 sided), the “daytime sleepiness during the Sleep Restriction period versus placebo (MSLT)” value is listed as “significantly less daytime sleepiness”. In data set [3] (gaboxadol 15 mg, last two Sleep Restriction days), the “MSLT longer than placebo, on average” value came to 2.01 min. The “Karolinska Sleepiness Score (KSS) less than placebo, on average” value in data set [3] (gaboxadol 15 mg, last two Sleep Restriction days, LDA model, p=0.058, 1 sided) came out at 0.68. For the same molecule, the “SWS longer than placebo, on average” value in data set [3] (gaboxadol 15 mg, last two Sleep Restriction nights) was 20.53 min. Moreover, in data set [3] (gaboxadol 15 mg, p<0.001, 1 sided), the “slow wave sleep (SWS) during the Sleep Restriction period versus placebo” value is “significantly more SWS”. In addition, the psychiatric adverse events entry in the data set with patients is reported as “steep increase”.
For `Cc1nnc2n1-c1ccc(Cl)cc1C(c1ccccc1)=NC2` [alprazolam], the “efficacy in treating tinnitus” value with tinnitus is “opposing results”.
With `CN1C(=O)CN=C(c2ccccc2)c2cc(Cl)ccc21` [diazepam], the “efficacy in treating tinnitus” value in the data set with tinnitus is on record as “not effective”.
